From patent US8609695B2, “Methods of treating and/or suppressing insulin resistance” (Endorecherche, Inc., priority 1999, dated 2013)
Marks after values point to notes of the source that are not given here.

Key:
[1] = test system: ovariectomized rats; assay: 20-day treatment with EM-652.HCl, body fat, body weight and energy balance (Example 3); format: in vivo, rat; details: 20 days
Method: Eight to ten week-old female Sprague-Dawley rats (Crl:CD(SD)Br) (Charles River Laboratory, St-Constant, Canada) weighing approximately 200-225 g at the start of treatment were used. The animals were acclimatized to the environmental conditions (temperature: 22±3° C.; 10-h light-14-h dark cycles, lights on at 06:00 h) for 1 week before starting the experiment. The animals were housed individually in stainless steel cages of conventional design and were allowed free access to tap water and a high carbohydrate mixed diet composed of (g/100 g): Corn starch, 31.2; Dextrose, 31.2; Casein, 20.0; corn oil, 6.4; dl-Methionine, 0.3; Vitamine mix, 1.0; AIN-76 mineral mix, 4.9 and fiber, 5.0. The experiment was conducted in a Canadian Council on Animal Care approved facility in accordance with the CCAC Guide for Care and Use of Experimental Animals.
On day 1 of the study, the animals of the appropriate groups were bilaterally ovariectomized (OVX) under isoflurane anesthesia. […] The treatment with EM-652.HCl or vehicle alone (0.4% methylcellulose in water) was initiated on day 2 of the study. The compound or vehicle was given once daily by oral gavage in 0.5 ml/rat for 20 days. Body weights and food consumption were recorded every 2 days.
Approximately 24 hours after the last dosing, overnight fasted animals were anesthesized with ketamine-xylazine and blood drawn by cardiac puncture. The blood was collected as well as white and brown adipose tissues.
Body weight, food intake, and body gains in energy, fat, and protein were determined according to Deshaies et al, Am. J. Physiol., 1997; 273, E355-E362 (1997).
Lipoprotein lipase activities were determined according to Deshaies et al, Am. J. Physiol., 1997; 273, E355-E362 (1997).

[2] = test system: lean and obese Zucker male rats; assay: Energy balance and lipid-lipoprotein metabolism in Zucker male rats (Example 8A); format: in vivo, Rattus norvegicus; details: for Lipoprotein lipase activity White retroperitoneal / Lipoprotein lipase activity soleus / Plasma glucose / Plasma insulin / Plasma total cholesterol / Plasma triglycerides / Weight gain: 2.5 mg/kg orally once daily, 14 days; for decrease of body weight gain / reduction of plasma insulin: 2.5 mg/kg/day
Method: The objective of this study was to determine the effect of EM-652.HCl on energy balance and lipid-lipoprotein metabolism in lean and obese Zucker male rats. For this purpose, EM-652.HCl (2.5 mg/kg) was administered orally (gavage) once daily for 14 days to intact lean and obese Zucker male rats.
d) Diet: During the acclimation period, rats received a commercial rodent diet (Purina, #5075) and tap water ad libitum. During study period, rats received the following diet (diet #3) composed of (g/100 g): Starch, 31.2; Dextrose, 31.2; Casein, 20.0; Corn oil, 6.4; dl-Methionine, 0.3; Vitamin mix, 1.0; AIN-76 mineral mix, 4.9; Fiber, 5.0.
Test groups: Sixteen lean and sixteen obese intact male rats were assigned to 4 groups of 8 rats for conduct of the study outlined below
Administration of the tested compound or vehicle started on Day 1 of the study. The tested compound EM-652.HCl was given as suspension in 0.4% methylcellulose by oral gavage (0.5 ml/gavage/rat) once daily for 14 days. Rats from control groups received the vehicle alone (0.5 ml/gavage/rat) for the same time period.
During the acclimation period, animals were weighed one day prior to the start of dosing for randomization. Then, rats were weighed on the first dosing day and every 2 days thereafter as well as on the day of necropsy. Body weights were recorded with a precision of 1 g.
Following an approximative 6-hour fasting period, animals were necropsied (approximately 30 hours after the last dosing). They were anesthesized with ketamine-xylazine and blood drawn by cardiac punction.
Blood lipids (Total cholesterol (CHOL) and Triglycerides (TG)) and glucose were measured on frozen plasma samples using the Boehringer Mannheim Diagnostic Hitachi 911 Analyzer (Boehringer Mannheim Diagnostic Laboratory Systems). Circulating hormones and substrates (Leptin, Insulin) were measured on frozen plasma samples with the following kits: • Leptin: Linco RLA kit • Insulin: Linco RIA kit Organs and Tissues Collected:
The retroperitoneal adipose tissue and the soleus (muscle) were collected and frozen in liquid nitrogen for further determination of lipoprotein lipase (LPL) activity. The prostate, testes (right and left together) and right seminal vesicle (empty of fluid) were weighed. The right seminal vesicles were discarded.

[3] = OVX rats, EM-652.HCl 0.5 mg/rat oral once daily, E2 implant

SMILES: CC1=C(c2ccc(O)cc2)[C@H](c2ccc(OCCN3CCCCC3)cc2)Oc2cc(O)ccc21.Cl [EM-652.HCl, (S)-(+)-7-hydroxy-3-(4′-hydroxyphenyl)-4-methyl-2-(4″-(2′″-piperidino-ethoxy)phenyl)-2H-1-benxopyran hydrochloride]
- Ovx-induced increase in energy intake [1]: completely prevented
- Ovx-induced insulin resistance (fasting hyperinsulinemia and hyperglycemia) ([1]; FIG. 5): prevented
- decrease in soleus muscle lipoprotein lipase by Ovx ([1]; FIG. 8): prevented
- soleus weight increase by Ovx ([1]; FIG. 8): prevented
- OVX increase in mass of inguinal and retroperitoneal adipose tissues ([1]; FIGS. 6A and 6C): completely abolished
- body weight gain after ovariectomy ([1]; OVX rats, FIG. 2A): completely reversed
- protein gain ([1]; OVX rats, FIG. 2B): less accentuated
- fat gain after ovariectomy ([1]; OVX rats, FIG. 2C): completely reversed
- Cumulative food intake ([1]; OVX rats, FIG. 3): lower than that of intact animals
- increase in body energy from proteins following ovariectomy ([1]; OVX rats, FIG. 4A): completely reversed
- increase in body energy from fat following ovariectomy ([1]; OVX rats, FIG. 4B): completely reversed
- interscapular brown adipose tissue weight, protein content and lipoprotein lipase activity ([1]; OVX rats, FIG. 7): completely reversed
- Digestible energy intake [1, 3]: 4479^b kJ
- Enegery gain [1, 3]: 278^b kJ
- Apparent energy (expenditure) ([1]; OVX rats, calculated from energy intake and energy gain): 4201^b kJ
- Food efficiency ([1]; OVX rats, kJ deposited per 100 kJ ingested): 5.9b %
- Lipoprotein lipase activity White retroperitoneal ([2]; lean Zucker male rats): 1701 ± 348 μU/g protein
- Lipoprotein lipase activity soleus ([2]; lean Zucker male rats): 69.5 ± 8.4 μU/g protein
- Plasma glucose ([2]; lean Zucker male rats): 9.35 ± 0.51 mmol/L
- Plasma insulin ([2]; lean Zucker male rats): 0.062 ± 0.005 nmol/L
- Plasma total cholesterol ([2]; lean Zucker male rats): 1.18 ± 0.09 mmol/L
- Plasma triglycerides ([2]; lean Zucker male rats): 1.52 ± 0.13 mmol/L
- Weight gain ([2]; lean Zucker male rats): 44.9 ± 3.5 g
- decrease of body weight gain ([2]; lean male Zucker rats): 38%
- reduction of plasma insulin ([2]; lean male Zucker rats): 35%
- Lipoprotein lipase activity White retroperitoneal ([2]; obese Zucker male rats): 7046 ± 1185 μU/g protein
- Lipoprotein lipase activity soleus ([2]; obese Zucker male rats): 58.1 ± 4.6 μU/g protein
- Plasma glucose ([2]; obese Zucker male rats): 11.84 ± 0.62 mmol/L
- Plasma insulin ([2]; obese Zucker male rats): 0.475 ± 0.087 nmol/L
- Plasma total cholesterol ([2]; obese Zucker male rats): 2.28 ± 0.25 mmol/L
- Plasma triglycerides ([2]; obese Zucker male rats): 7.16 ± 1.06 mmol/L
- Weight gain ([2]; obese Zucker male rats): 71.6 ± 3.3 g
- decrease of body weight gain ([2]; obese male Zucker rats): 35%
- reduction of plasma insulin ([2]; obese male Zucker rats): 57%
